In PubChem BioAssay (NCI):
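Growth conditions: 96-well plates. Treatment: test compound, 48 hours, 5 concentrations. Analysis: linear interpolation between bracketing concentrations; unreached endpoints set to highest concentration. TGI: total growth inhibition.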

Key:
Experiment in all cases: NCI-60 cell line screen, 48 h
[1] = test system: SK-MEL-5 melanoma
[2] = test system: U251 CNS
[3] = test system: HOP-92 NSCLC
[4] = test system: UACC-62 melanoma
[5] = test system: HT29 colon
[6] = test system: A498 renal
[7] = test system: NCI-H522 lung
[8] = test system: UO-31 renal
[9] = test system: CCRF-CEM leukemia
[10] = test system: SF-295 CNS
[11] = test system: OVCAR-5 ovarian
[12] = test system: CAKI-1 renal
[13] = test system: HCT-15 colon
[14] = test system: A549 NSCLC
[15] = test system: IGROV1 ovarian
[16] = test system: HL-60(TB) leukemia
[17] = test system: SK-MEL-28 melanoma
[18] = test system: OVCAR-8 ovarian
[19] = test system: SNB-75 CNS
[20] = test system: M19-MEL melanoma
[21] = test system: SW-620 colon
[22] = test system: XF 498 CNS
[23] = test system: MOLT-4 leukemia
[24] = test system: EKVX NSCLC
[25] = test system: ACHN renal
[26] = test system: SNB-78 CNS
[27] = test system: KM12 colon
[28] = test system: 786-0 renal
[29] = test system: SNB-19 CNS
[30] = test system: RXF 393 renal
[31] = test system: NCI-H460 lung
[32] = test system: COLO 205 colon
[33] = test system: SF-268 CNS
[34] = test system: HCC-2998 colon
[35] = test system: HOP-62 NSCLC
[36] = test system: RPMI-8226 leukemia
[37] = test system: MALME-3M melanoma
[38] = test system: SR leukemia
[39] = test system: DMS 273 small cell lung
[40] = test system: NCI-H23 lung
[41] = test system: SF-539 CNS
[42] = test system: M14 melanoma
[43] = test system: LOX IMVI melanoma
[44] = test system: DLD-1 colon
[45] = test system: SK-MEL-2 melanoma
[46] = test system: SK-OV-3 ovarian
[47] = test system: OVCAR-3 ovarian
[48] = test system: K-562 leukemia
[49] = test system: OVCAR-4 ovarian
[50] = test system: TK-10 renal
[51] = test system: LXFL 529 NSCLC
[52] = test system: T-47D breast
[53] = test system: PC-3 prostate
[54] = test system: NCI-H226 lung
[55] = test system: MCF7 breast
[56] = test system: BT-549 breast
[57] = test system: DU-145 prostate
[58] = test system: HCT-116 colon
[59] = test system: MDA-MB-231 breast
[60] = test system: MDA-MB-435
[61] = test system: UACC-257 melanoma
[62] = test system: MDA-N
[63] = test system: SN12C renal
[64] = test system: NCI/ADR-RES ovarian
[65] = test system: HS 578T breast

COC1=CC(=O)[C@H]2[C@H](C)C(c3ccccc3)[C@@]2(C)C1=O (stereo not given in full)
TGI [1]: > 100 µM
TGI [2]: > 100 µM
TGI [3]: > 100 µM
TGI [4]: > 100 µM
TGI [5]: > 100 µM
TGI [6]: > 100 µM
TGI [7]: > 100 µM
TGI [8]: > 100 µM
TGI [9]: > 100 µM
TGI [10]: > 100 µM
TGI [11]: > 100 µM
TGI [12]: > 100 µM
TGI [13]: > 100 µM
TGI [14]: > 100 µM
TGI [15]: > 100 µM
TGI [16]: > 100 µM
TGI [17]: > 100 µM
TGI [18]: > 100 µM
TGI [19]: > 100 µM
TGI [20]: > 100 µM
TGI [21]: > 100 µM
TGI [22]: > 100 µM
TGI [23]: > 100 µM
TGI [24]: > 100 µM
TGI [25]: > 100 µM
TGI [26]: > 100 µM
TGI [27]: > 100 µM
TGI [28]: > 100 µM
TGI [29]: > 100 µM
TGI [30]: > 100 µM
TGI [31]: > 100 µM
TGI [32]: > 100 µM
TGI [33]: > 100 µM
TGI [34]: > 100 µM
TGI [35]: > 100 µM
TGI [36]: > 100 µM
TGI [37]: > 100 µM
TGI [38]: > 100 µM
TGI [39]: > 100 µM
TGI [40]: > 100 µM
TGI [41]: > 100 µM
TGI [42]: > 100 µM
TGI [43]: > 100 µM
TGI [44]: > 100 µM
TGI [45]: > 100 µM
TGI [46]: > 100 µM
TGI [47]: > 100 µM
TGI [48]: > 100 µM
TGI [49]: > 100 µM
TGI [50]: > 100 µM
TGI [51]: > 100 µM

CC(C)(C)N(Cc1ccc2c(c1)OCO2)C(=O)/C=C\S(=O)c1ccccc1 (stereo not given)
TGI [1]: 12.9 µM
TGI [2]: 14.9 µM
TGI [3]: 8.18 µM
TGI [52]: 14.3 µM
TGI [53]: 9.71 µM
TGI [4]: 13.6 µM
TGI [5]: 12.9 µM
TGI [54]: 11.2 µM
TGI [6]: 21.4 µM
TGI [7]: 2.14 µM
TGI [8]: 7.93 µM
TGI [9]: > 100 µM
TGI [55]: 14.2 µM
TGI [10]: 22.9 µM
TGI [11]: 25.1 µM
TGI [12]: 15.1 µM
TGI [13]: 13.2 µM
TGI [56]: 10.3 µM
TGI [14]: 18.4 µM
TGI [57]: 10.2 µM
TGI [15]: 13.3 µM
TGI [16]: 7.6 µM
TGI [17]: 22.8 µM
TGI [18]: 6.44 µM
TGI [19]: 15.1 µM
TGI [21]: 17.5 µM
TGI [58]: 7.84 µM
TGI [23]: > 45.4 µM
TGI [24]: 20.9 µM
TGI [25]: 15.2 µM
TGI [59]: 9.75 µM
TGI [27]: 14 µM
TGI [28]: 6.07 µM
TGI [29]: 20.7 µM
TGI [30]: 8.22 µM
TGI [60]: 9.74 µM
TGI [61]: 12.5 µM
TGI [31]: 16.9 µM
TGI [32]: 8.75 µM
TGI [33]: 5.78 µM
TGI [34]: 13.8 µM
TGI [35]: 17.7 µM
TGI [36]: 9.54 µM
TGI [37]: 13.9 µM
TGI [38]: > 27.7 µM
TGI [40]: 8.79 µM
TGI [41]: 6.6 µM
TGI [42]: 8.2 µM
TGI [62]: 12.7 µM
TGI [43]: 7.51 µM
TGI [63]: 9.03 µM
TGI [45]: 9.11 µM
TGI [46]: 9.38 µM
TGI [47]: 7.4 µM
TGI [48]: > 100 µM
TGI [49]: 10.7 µM
TGI [64]: 10.2 µM
TGI [50]: 17 µM
TGI [65]: 6.36 µM
